Results as given in patent publication US7732200B2, “Materials and methods for nerve grafting, selection of nerve grafts, and in vitro nerve tissue culture” (University of Florida Research Foundation, Inc., priority 2001, dated 2010).

Columns and labels:
rat sciatic nerve = test: Human-to-rat acellular nerve xenograft model (GAP-43 profiles); assay type: in vivo; settings: acellular human nerve fascicle grafts in rat, 8 days, 2 rats
Experimental: In the following experiments, the hypothesis that chondroitinase treatment improves nerve regeneration through acellular human nerve grafts in a rat xenograft model was tested. Subunits (individual fascicles) taken from human nerves were treated en bloc with vehicle or chondroitinase ABC. Ten-mm interpositional nerve grafts were joined to the rat host sciatic nerve by epineurial neurorrhaphy reinforced with fibrin glue. Each of 2 host rats received bilateral grafts, one vehicle-treated and one chondroitinase-treated graft. Regeneration was initially examined after 8 days. Axonal growth was assessed at specified spatial intervals within the graft by scoring GAP-43-immunopositive profiles in transverse sections.

CSPG [1] = test: CSPG neoepitope (Ab1918) and laminin immunolabeling of acellular nerve segments treated en bloc; settings: acellular rat sciatic nerve segments bathed en bloc 16 h, 2 units/ml
Description: Preparation of acellular nerve grafts treated with chondroitinase: Adult (180-200 g) female SPRAGUE DAWLEY rats (HARLAN, Indianapolis, Ind.) were used as nerve donors and recipient hosts. Donor rats were anesthetized with halothane and decapitated. Sciatic nerves were exposed through a gluteal muscle-splitting incision and isolated free of underlying fascia. A 15-mm nerve segment was excised rostral to the bifurcation into common peroneal and tibial nerves. The segments were rinsed with cold sterile Ringer's solution, stabilized by pinning the ends to a thin plastic support, and transferred to a cryogenic vial. The vials were submerged in liquid nitrogen for 2 minutes and then transferred to a 37° C. water bath for 2 minutes. This freeze/thaw cycle was repeated, yielding acellular nerve grafts that were then stored in liquid nitrogen. On the day before grafting, the nerve grafts were warmed to room temperature and incubated in 100 μl phosphate buffered saline pH 7.4 (PBS) containing 2 units/ml chondroitinase ABC (SIGMA, St. Louis, Mo.) or in PBS (vehicle) only for 16 hours at 37° C. The grafts were rinsed twice with Ringer's and kept on ice prior to use. […]
(§1) Immunocytochemistry. Axonal regeneration was assessed by GAP-43 immunofluorescence and digital image analysis. […]

CSPG [2] = test: CSPG neoepitope immunostaining of injured sciatic nerve after a single in vivo injection; design: species or system rat; settings: 1 U in 2 μl injected 2 mm distal to injury; 4 days (transection) or 2 days (crush)
Experimental: Surgical procedures for nerve transection and nerve crush experiments. All surgical procedures were performed according to Institutional Animal Care and Use Committee (IACUC) approved protocols. Young adult SPRAGUE DAWLEY rats (HARLAN Indianapolis, Ind.) were deeply anesthetized with xylazine (15 mg/kg, i.m.) followed by ketamine-HCl (110 mg/kg, i.p.). Six animals received bilateral nerve crush injuries. Sciatic nerves were exposed and then crushed with firm pressure for thirty seconds with a DUMONT #5 forceps at a site 4 mm distal to the tendon of the internal obdurator. The crush site was marked with an epineurial suture. In a separate set of experiments, eight rats received bilateral sciatic nerve transection injuries using serrated scissors. The proximal and distal stumps were […] by epineurial neurorrhaphy using 9-0 ETHILON sutures. Fibrin glue (fibrinogen and thrombin) was then applied to stabilize the union. In both injury models, the right sciatic nerves were injected 2-mm distal to the injury with chondroitinase ABC (1 U in 2 μl) (high-purity, protease-free; SIGMA CHEMICAL CO., St. Louis, Mo.). Left sciatic nerves (with the same injury as the right side) were injected with vehicle alone (0.1% bovine serum albumin in PBS). […]
as §1

chondroitinase ABC
average number of axons (GAP-43-immunopositive profiles) entering grafts vs control grafts (rat sciatic nerve): more than three-fold greater | CSPG degradation by Ab1918 neoepitope immunostaining (CSPG [1]): thoroughly degraded CSPG side-chains | CSPG degradation in extracellular matrix around the injection site (CSPG [2]): substantially, if not completely, degraded CSPG
